Peptide text beside a SMILES is read from it. * marks the point of attachment. Fmoc = O=C(OCC1c2ccccc2-c2ccccc21)*

The test system of the assay is human adult dermal fibroblasts. Description: LDH assay of cell viability (3D culture). The class given is cell-based. On the procedure:
In order to quantitatively test cell viability in the 3D culture, LDH assay was adopted which tested the amount of lactate dehydrogenase inside cell […] (reflecting cell numbers).
0.0107 gram of Fmoc-Phe-Phe-OH was weighed in a glass vial and sterilized for 30 minutes by an ultraviolet light with bottles of distilled water, filtered NaOH (Sodium Hydroxide, 0.5 M/L), filtered HCl (Hydrochloric Acid, 0.5 M/L), and relevant apparatus (spatulas, pipettes, Vortex). 2 mL of the sterile distilled water was then added into the glass vial of Fmoc-Phe-Phe-OH, and the mixture was vortexed for a few seconds to create a suspension. Afterwards, approximate 100 μL of NaOH was gradually pipetted into the suspension (20 μL each pipetting) and the mixture was vortexed after every addition of the alkaline. The whole mixture was shaken continually until a homogeneous transparent solution was obtained. The basic peptide solution (pH around 10) was finally neutralized to pH 7 by dropwise addition of HCl and pH values were monitored by a pH meter with a micro-probe. […]
The culture was maintained in a 37° C./5% CO2 incubator for a 10 day period and LDH assay was carried out after 1 hour, 1 day, 3 days, 7 days, and 10 days. […] Assay reagent was then added, the mixture was incubated, and light absorbance at 490 nm was then measured. Absorbance was converted to cell number according to a standard. […]

On to `O=C(N[C@@H](Cc1ccccc1)C(=O)N[C@@H](Cc1ccccc1)C(=O)O)OCC1c2ccccc2-c2ccccc21` [Entry 1, Fmoc-Phe-Phe-OH] (Fmoc-Phe-Phe-OH), for which the “cell number (LDH assay), initial course” value (3D culture, 10 day period) is given as “initially a decreasing of cell numbers”. Further, the “cell number increase (LDH assay)” value (from day 7 to day 10, 3D culture) is 5 folds.
